From patent US20210315893A1 (Galapagos NV, priority 2017, published 2021)

Assays:
[1] = molecular target: T1, human GPCR sphingosine 1-phosphate receptor 1 (Homo sapiens, UniProt P21453); test: S1PR1 selectivity Ca2+ flux assay (antagonist readout); format: cell-based; settings: antagonist readout, CHO cells overexpressing human S1PR1 and Gq, S1P at EC80 (6 nM); read-out: S1P1 EC50 (nM), S1P1 antagonist EC50
T1 construct: host or cells: CHO
How it was run: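 Antagonist mode: S1P challenge follows 15 min compound preincubation at 37 °C. Cells are CHO stably expressing human S1PR1, serum-starved 1 h (0.1% FAF BSA), loaded with Fluo 8. Peak-over-baseline fluorescence ratio is normalized to positive/negative controls; IC50 from logistic curve fit.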

S1PR2 = molecular target: T2, S1PR2 (Homo sapiens, UniProt O95136); test: S1PR2 binding assay (competition with radioactively labeled S1P, SpA); settings: membranes from stable cell line over expressing S1PR2, SpA beads; read-out: S1P2 EC50 (nM), S1PR2 binding EC50
T2 construct: expressed in transfected cells
T2 sequence (O95136 whole entry): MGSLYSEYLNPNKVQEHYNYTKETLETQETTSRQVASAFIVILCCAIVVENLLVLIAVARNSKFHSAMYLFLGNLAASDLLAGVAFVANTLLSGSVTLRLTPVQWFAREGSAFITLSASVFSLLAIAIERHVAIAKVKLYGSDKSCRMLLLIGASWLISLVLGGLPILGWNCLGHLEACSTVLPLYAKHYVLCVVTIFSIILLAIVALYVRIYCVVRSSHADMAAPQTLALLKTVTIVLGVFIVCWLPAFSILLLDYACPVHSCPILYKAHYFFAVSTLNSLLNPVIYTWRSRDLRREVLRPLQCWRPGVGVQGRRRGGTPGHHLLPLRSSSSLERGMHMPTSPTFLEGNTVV
How it was run: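 Scintillation proximity read-out after 2 h room-temperature incubation of compound, [3H]S1P and S1PR2-overexpressing cell membranes on WGA-coated beads. Buffer: 20 mM Tris pH 7.5, 100 mM NaCl, 10 mM MgCl2, 1 mM Na3VO4, 0.4% fatty-acid-free BSA; plates counted immediately after centrifugation.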

[2] = molecular target: T3, human GPCR sphingosine 1-phosphate receptor 2 (Homo sapiens, UniProt O95136); test: S1PR2 antagonist Ca2+ flux assay; format: cell-based; settings: antagonist mode, CHO-S1PR2 cells, S1P at EC80, Ca2+ fluorescence; read-out: S1P2 EC50 (nM), S1P2 antagonist EC50
T3 construct: host or cells: CHO
T3 sequence (O95136 whole entry): as above
How it was run: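 Antagonist mode: 15 min after compound addition, S1P (EC80) stimulates Fluo8-loaded, 1 h-starved CHO-S1PR2 cells, Ca2+ read over 3 min; a prior 3-min read checks compound agonism. EC50 from peak/baseline fluorescence ratio, normalised versus vehicle and S1P EC50 (antagonist) or EC100 (agonist).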

[3] = molecular target: T4, human GPCR sphingosine 1-phosphate receptor 5 (Homo sapiens, UniProt Q9H228); test: S1PR5 selectivity Ca2+ flux assay (antagonist readout); format: cell-based; settings: CHO cells overexpressing human S1PR5 and Gq, agonist at EC80 (20 nM), read-out: S1P5 EC50 (nM), S1P5 antagonist EC50
T4 construct: host or cells: CHO
T4 sequence (Q9H228 whole entry): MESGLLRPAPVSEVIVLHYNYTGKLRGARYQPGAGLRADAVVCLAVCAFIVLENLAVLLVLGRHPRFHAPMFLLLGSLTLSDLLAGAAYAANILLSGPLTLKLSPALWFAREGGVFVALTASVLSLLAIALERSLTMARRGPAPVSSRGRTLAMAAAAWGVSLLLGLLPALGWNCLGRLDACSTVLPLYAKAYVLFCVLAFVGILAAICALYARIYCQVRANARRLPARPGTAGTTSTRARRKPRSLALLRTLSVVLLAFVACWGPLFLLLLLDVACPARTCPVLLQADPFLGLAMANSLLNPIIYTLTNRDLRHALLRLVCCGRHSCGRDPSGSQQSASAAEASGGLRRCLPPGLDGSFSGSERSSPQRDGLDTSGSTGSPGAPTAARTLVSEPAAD
How it was run: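 Antagonist readout: after 15 min compound preincubation at 37° C, human S1PR5/Gq CHO cells loaded with Fluo 8 dye received an EC80 challenge of S1PR5-specific agonist, and fluorescence was recorded for 3 min. Maximal-over-background ratios, normalized as % inhibition, gave IC50 by logistic fit.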

HFL-1 cells [4] = test: IL8 assay in the presence of Human Serum Albumin; settings: HFL1, read-out: HSA IL8 EC50
HFL-1 cells [5] = test: IL-8 production assay (S1P induced IL-8); format: cell-based; settings: Homo sapiens, HFL1; S1P (1 μM) induced IL-8 in HFL-1 cells, starvation medium without HSA; read-out: IL8 EC50
How it was run: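 HFL-1 fibroblasts in low-serum medium were pretreated 1 h with a 10-point 1/3 series of compound starting at 30 μM (0.3% DMSO).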

T1 sequence (P21453 whole entry): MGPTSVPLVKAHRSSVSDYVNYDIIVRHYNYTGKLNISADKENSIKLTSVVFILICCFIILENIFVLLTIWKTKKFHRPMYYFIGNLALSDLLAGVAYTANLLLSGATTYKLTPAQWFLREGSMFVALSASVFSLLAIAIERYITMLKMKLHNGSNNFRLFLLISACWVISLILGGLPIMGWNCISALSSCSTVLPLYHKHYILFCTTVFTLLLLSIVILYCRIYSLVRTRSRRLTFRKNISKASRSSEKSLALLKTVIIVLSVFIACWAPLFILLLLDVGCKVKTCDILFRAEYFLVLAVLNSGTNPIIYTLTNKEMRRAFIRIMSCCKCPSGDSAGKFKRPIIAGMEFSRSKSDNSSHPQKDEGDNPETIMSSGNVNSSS

Row | Compound | EC50 [1] [nM] | EC50 (S1PR2) [nM] | EC50 [2] [nM] | EC50 [3] [nM] | EC50 (HFL-1 cells [4]) [nM] | EC50 (HFL-1 cells [5]) [nM]
1 | O=C(O)c1nn(Cc2cn3cc(OCC4CC4)c(Cl)cc3n2)c2ccccc2c1=O [Compound 85, 1-[[7-chloro-6-(cyclopropylmethoxy)imidazo[1,2-a]pyridin-2-yl]methyl]-4-oxo-cinnoline-3-carboxylic acid] | ≥ 19800 | 619 | 37.4 | 19800 | 2280 | 78.9
2 | O=C(O)CN1CCC(n2nc(Cc3cn4cc(OCC5CC5)c(Cl)cc4n3)c3ccccc3c2=O)C1 (stereo not drawn) [Compound 87, 2-[3-[4-[[7-chloro-6-(cyclopropylmethoxy)imidazo[1,2-a]pyridin-2-yl]methyl]-1-oxo-phthalazin-2-yl]pyrrolidin-1-yl]acetic acid] | ≥ 19800 | 178 | 149 | 19800 | 324 | 283
3 | O=C(O)c1cn(Cc2nc3cc(OCC4CC4)c(Cl)cc3[nH]2)c2ccccc2c1=O [Compound 90, 1-[[6-chloro-5-(cyclopropylmethoxy)-1H-benzimidazol-2-yl]methyl]-4-oxo-quinoline-3-carboxylic acid] | 4580 | 13.3 | 5.29 | 6610 | 29.1 | 1.11
4 | CC(C(=O)O)n1nc(Cn2cc3cc(OCC4CC4)c(Cl)cc3n2)c2cc(C#N)ccc2c1=O (stereo not drawn) [Compound 92, 2-[4-[[6-chloro-5-(cyclopropylmethoxy)indazol-2-yl]methyl]-6-cyano-1-oxo-phthalazin-2-yl]propanoic acid] | 13200 | 32.1 | 8.99 | 19800 | 544 | 4.41
5 | CC(C(=O)O)n1nc(Cn2cc3cc(OCC4CC4)c(Cl)cc3n2)c2c(c1=O)CCCC2 (stereo not drawn) [Compound 93, 2-[4-[[6-chloro-5-(cyclopropylmethoxy)indazol-2-yl]methyl]-1-oxo-5,6,7,8-tetrahydrophthalazin-2-yl]propanoic acid] | ≥ 19800 | 22.4 | 8.99 | 19800 | 22.8 | 3.04
6 | O=C(O)C1(n2nc(Cn3cc4cc(OCC5CC5)c(Cl)cc4n3)c3ccccc3c2=O)CC1 [Compound 95, 1-[4-[[6-chloro-5-(cyclopropylmethoxy)indazol-2-yl]methyl]-1-oxo-phthalazin-2-yl]cyclopropanecarboxylic acid] | ≥ 19800 | 208 | 19.4 | 19800 | 1830 | 53.4
7 | COc1ccc2c(Cn3cc4cc(OCC5CC5)c(Cl)cc4n3)nn(C(C)C(=O)O)c(=O)c2c1 (stereo not drawn) [Compound 97, 2-[4-[[6-chloro-5-(cyclopropylmethoxy)indazol-2-yl]methyl]-7-methoxy-1-oxo-phthalazin-2-yl]propanoic acid] | ≥ 19800 | 432 | 53.4 | 19800 | 5700 | 60.5
8 | O=C(O)Cc1nn(Cc2cn3cc(OCC4CC4)c(Cl)cc3n2)c2cc(F)ccc2c1=O [Compound 101, 2-[1-[[7-chloro-6-(cyclopropylmethoxy)imidazo[1,2-a]pyridin-2-yl]methyl]-7-fluoro-4-oxo-cinnolin-3-yl]acetic acid] | ≥ 19800 | 33.2 | 3.48 | 19800 | 154 | 6.74
9 | O=C(O)c1cn(Cc2nc3cc(OCC4CC4)c(C(F)(F)F)cc3[nH]2)c2ccccc2c1=O [Compound 106, (1-[[5-(cyclopropyl-methoxy)-6-(trifluoromethyl)-1H-benzimidazol-2-yl]methyl]-4-oxoquinoline-3-carboxylic acid)] | 830 | 14.1 | 3.45 | 19800 | 98.9 | 1.86
10 | CC(C(=O)O)c1nn(Cc2nc3cc(OCC4CC4)c(C#N)cc3[nH]2)c2ccccc2c1=O (stereo not drawn) [Compound 107, 2-[1-[[6-cyano-5-(cyclopropylmethoxy)-1H-benzimidazol-2-yl]methyl]-4-oxo-cinnolin-3-yl]propanoic acid] | 2150 | 52.9 | 3.49 | 19800 | 7.56 | 0.986
11 | N#Cc1cc2[nH]c(Cn3nc(CC(=O)O)c(=O)c4ccccc43)nc2cc1OCC1CC1 [Compound 108, 2-[1-[[6-cyano-5-(cyclopropylmethoxy)-1H-benzimidazol-2-yl]methyl]-4-oxo-cinnolin-3-yl]acetic acid] | 3080 | 9.21 | 2.94 | 19800 | 5.89 | 1.54
12 | O=C(O)Cn1nc(Cc2nc3cc(Cl)c(OCC4CC4)c(F)c3[nH]2)c2ccccc2c1=O [Compound 116, 2-[4-[[5-chloro-6-(cyclopropylmethoxy)-7-fluoro-1H-benzimidazol-2-yl]methyl]-1-oxo-phthalazin-2-yl]acetic acid] | ≥ 19800 | 183 | 25.2 | 19900 | 566 | 77.8
13 | O=C(O)Cn1nc(Cc2nc3cc(Cl)c(OCC4CC4)cc3[nH]2)c2c(c1=O)CCCC2 [Compound 117, 2-[4-[[5-chloro-6-(cyclopropylmethoxy)-1H-benzimidazol-2-yl]methyl]-1-oxo-5,6,7,8-tetrahydrophthalazin-2-yl]acetic acid] | 1540 | 33.2 | 8.18 | 13200 | 8.83 | 0.96
14 | O=C(O)Cn1nc(Cc2nc3cc(Cl)c(OCC(F)F)cc3[nH]2)c2c(c1=O)CCCC2 [Compound 119, 2-[4-[[5-chloro-6-(2,2-difluoroethoxy)-1H-benzimidazol-2-yl]methyl]-1-oxo-5,6,7,8-tetrahydrophthalazin-2-yl]acetic acid] | ≥ 19800 | 23.3 | 6.58 | 19800 | 189 | 11.3
15 | COc1cc2[nH]c(Cc3nn(CC(=O)O)c(=O)c4c3CCCC4)nc2cc1Cl [Compound 120, 2-[4-[(5-chloro-6-methoxy-1H-benzimidazol-2-yl)methyl]-1-oxo-5,6,7,8-tetrahydrophthalazin-2-yl]acetic acid] | ≥ 19800 | 392 | 57 | 19800 | 822 | 96.7
16 | CC(C(=O)O)n1nc(Cc2nc3cc(OCC4CC4)c(Cl)cc3[nH]2)c2ccccc2c1=O (stereo not drawn) [Compound 122, 2-[4-(6-Chloro-5-cyclopropylmethoxy-1H-benzoimidazol-2-ylmethyl)-1-oxo-1H-phthalazin-2-yl]-propionic acid] | 3720 | 342 | 13.6 | 19800 | 13.3 | 2.29
17 | O=C(O)Cn1cc(Cc2nc3cc(Cl)c(OCC(F)F)cc3[nH]2)c2ccccc2c1=O [Compound 125, {4-[5-Chloro-6-(2,2-difluoro-ethoxy)-1H-benzoimidazol-2-ylmethyl]-1-oxo-1H-isoquinolin-2-yl}-acetic acid] | ≥ 19800 | 200 | 24.4 | 19800 | 1680 | 66.1
